Test results reported in US20240415785A1, “USE OF D-ARABITOL IN LIPID-LOWERING AND HEPATOPROTECTION” (NANJING UNIVERSITY OF CHINESE MEDICINE, priority 2022, published 2024).

How the values were obtained:
Format in all cases: in vivo
[1] = system: C57 BL/6 J male mice with the high-fat diet; assay: Body weight ratio of mice with the high-fat diet; settings: high-fat feed, 12 weeks, compared with model group
Protocol: (§1) D-arabitol, L-arabitol, L-arabinose, D-arabinose, and D-xylitol each were prepared with sterile distilled water into a 50 g/L or 20 g/L solution.
(§2) A total of 64 SPF-grade 8-week-old C57 BL/6 J male mice were adaptively raised for 3 d with a normal diet in a barrier facility having an independently-ventilated cage (IVC), tested for an initial body weight, and randomly divided into 8 groups. On day 4, the mice in the 8 groups were administered with a normal feed or a high-fat feed, and drinking water for mice in an administration group was replaced with drug-containing water. Each mouse had free access to food and drinking water, and a body weight was recorded weekly. The grouping, diets, and administration were as follows: • (1) normal diet group (Chow): normal feed+sterile distilled water; • (2) high-fat diet group (HFD): high-fat feed+sterile distilled water; • (3) 50 g/L L-arabitol group (HFD+50 g/L L-Arabitol): high-fat feed+50 g/L L-arabitol; • (4) 20 g/L D-arabitol group (HFD+20 g/L D-Arabitol): high-fat feed+20 g/L D-arabitol; • (5) 50 g/L D-arabitol group (HFD+50 g/L D-Arabitol): high-fat feed+50 g/L D-arabitol; • (6) 50 g/L L-arabinose group (HFD+50 g/L L-Arabinose): high-fat feed+50 g/L L-arabinose; • (7) 50 g/L D-arabinose group (HFD+50 g/L D-Arabinose): high-fat feed+50 g/L D-arabinose; and • (8) 50 g/L xylitol group (HFD+50 g/L Xylitol): high-fat feed+50 g/L xylitol.
Mouse body weight ratio: a body weight at the nth week (g)×100%/an initial body weight (g). Data was subjected to statistical tests with Graphpad Prism v9.0. Two-way ANOVA and Tukey's multiple comparison tests were adopted for body weight data, and one-way ANOVA and Dunnett's multiple comparison tests were adopted for other data.

[2] = system: C57 BL/6 J male mice with the high-fat diet; assay: Blood lipid levels (total TG, LDL-c, HDL-c) in serum of mice with the high-fat diet; settings: high-fat feed, compared with high-fat diet group
Protocol: as §1, §2
(§3) At the end of the experiment, each mouse was anesthetized by intraperitoneal injection of sodium pentobarbital with a concentration of 5 mg/mL, the injection volume was 0.1 mL/10 g, and the injection dose was 50 mg/kg, and then blood was collected from the orbit. The mouse was sacrificed through cervical dislocation, and a liver was collected, rinsed with normal saline, and dried with a filter paper. A liver lobe was taken and fixed in paraformaldehyde. The remaining liver was quickly frozen with liquid nitrogen, and stored at −80° C. The blood was allowed to stand for 30 min and then centrifuged at 3,500 rpm for 10 min to obtain a supernatant, and the supernatant was collected and stored at −80° C.
A serum sample was taken, thawed at 4° C., and tested for serum HDL-c, LDL-c, total TG, ALT, and aspartate aminotransferase (AST) according to instructions of kits.

[3] = system: C57 BL/6 J male mice with the high-fat diet; assay: Total cholesterol (TC) level in liver of mice with the high-fat diet; settings: high-fat feed 12 weeks, compared with high-fat diet group
Protocol: as §1
as §2, with “xylitol. […]” for “xylitol.”

[4] = system: C57 BL/6 J male mice with the high-fat diet; assay: Liver histopathology (H&E staining) of mice with the high-fat diet; settings: high-fat feed
Protocol: as §1, §2, §3
A liver tissue that had been fixed with 4% paraformaldehyde was taken and subjected to gradient dehydration in the dehydrator as follows: in 75% ethanol for 4 h, in 85% ethanol for 2 h, in 90% ethanol for 2 h, in 95% ethanol for 1 h, in absolute ethanol I for 30 min, and in absolute ethanol II for 30 min. A tissue obtained after complete dehydration was permeabilized 1 time with a mixed solution of absolute ethanol and xylene mixed in equal volumes, and then permeabilized 2 times with pure xylene for about 5 min to 10 min each time. […]

[5] = system: C57 BL/6 J male mice with the high-fat diet; assay: Serum ALT level of mice with the high-fat diet; settings: high-fat feed 12 weeks, compared with high-fat diet group
Protocol: as §1
as §2, with “xylitol. […]” for “xylitol.”

[6] = system: patient with a high blood or liver lipid level; assay: Lipid-lowering method in patient or individual with a high blood or liver lipid level
From the text: A lipid-lowering method was provided, including: a drug was orally administered to or injected into a patient with a high blood or liver lipid level, where an active ingredient of the drug was D-arabitol.
A lipid-lowering method was provided, including: an individual with a high blood or liver lipid level was allowed to take a health care product or a food, where the health care product or the food included D-arabitol as an active ingredient.

[7] = system: patient with a liver damage caused by a high blood or liver lipid level; assay: Hepatoprotection method in patient or individual with a liver damage caused by a high blood or liver lipid level
From the text: A hepatoprotection method was provided, including: a drug was orally administered to or injected into a patient with a liver damage caused by a high blood or liver lipid level, where an active ingredient of the drug was D-arabitol.
A hepatoprotection method was provided, including: an individual with a liver damage caused by a high blood or liver lipid level was allowed to take a health care product or a food, where the health care product or the food included D-arabitol as an active ingredient.

O=C[C@H](O)[C@@H](O)[C@@H](O)CO [L-arabinose]
body weight ratio ([1]; 50 g/L in drinking water): did not have an effect of making a body weight ratio of mice significantly decrease

OC[C@@H](O)[C@H](O)[C@@H](O)CO [xylitol, Xylitol]
body weight ratio ([1]; 50 g/L in drinking water): did not have an effect of making a body weight ratio of mice significantly decrease

OC[C@@H](O)C(O)[C@H](O)CO [D-arabitol]
body weight ratio ([1]; 20 g/L in drinking water): start to significantly decrease from week 8 | body weight ratio ([1]; 50 g/L in drinking water): start to significantly decrease from week 4 | HDL-c concentration in serum ([2]; 20 g/L in drinking water): significantly reduce | LDL-c concentration in serum ([2]; 20 g/L in drinking water): significantly reduce | HDL-c concentration in serum ([2]; 50 g/L in drinking water): significantly reduce | LDL-c concentration in serum ([2]; 50 g/L in drinking water): significantly reduce | total TG in serum ([2]; 50 g/L in drinking water): decreased significantly | accumulation of TC in the liver ([3]; 20 g/L in drinking water): significantly reduce | accumulation of TC in the liver ([3]; 50 g/L in drinking water): significantly reduce | white vacuoles (lipid droplets) in the liver tissue, H&E staining ([4]; 20 g/L in drinking water): no obvious white vacuoles | white vacuoles (lipid droplets) in the liver tissue, H&E staining ([4]; 50 g/L in drinking water): no obvious white vacuoles | serum ALT concentration ([5]; 20 g/L in drinking water): significantly reduce | serum ALT concentration ([5]; 50 g/L in drinking water): significantly reduce | blood or liver lipid level in the patient ([6]; drug orally administered or injected, patient with a high blood or liver lipid level (Example 2)): decreased effectively | blood or liver lipid level in the individual ([6]; health care product or food taken by individual with a high blood or liver lipid level (Example 4)): decreased effectively | liver function in the patient ([7]; drug orally administered or injected, patient with a liver damage caused by a high blood or liver lipid level (Example 3)): improved effectively | liver function in the individual ([7]; health care product or food taken by individual with a liver damage caused by a high blood or liver lipid level (Example 5)): improved effectively

OC[C@H](O)C(O)[C@@H](O)CO [L-arabitol, reference compound]
body weight ratio ([1]; 50 g/L in drinking water): did not have an effect of making a body weight ratio of mice significantly decrease | liver cell structures, H&E staining (liver damage) ([4]; 50 g/L in drinking water): liver cell structures disappeared | white vacuoles (lipid droplets) in the liver tissue, H&E staining ([4]; 50 g/L in drinking water): no significant white vacuoles

O=C[C@@H](O)[C@H](O)[C@H](O)CO [D-arabinose]
body weight ratio ([1]; 50 g/L in drinking water): did not have an effect of making a body weight ratio of mice significantly decrease
